In US20100197688A1, “EPHA4 RTK INHIBITORS FOR TREATMENT OF NEUROLOGICAL AND NEURODEGENERATIVE DISORDERS AND CANCER” (priority 2008, published 2010):

Columns and labels:
[1] = tested on: C2C12 cells; experiment: Proliferation assay (cell confluence), C2C12 cells; type: cell-based, mouse; conditions: at 5 μM
Description: C2C12 were plated at 15,000 cells per well and then differentiated into myotubes with DMEM supplemented with 2% horse serum for 3 days in 24 well ImageLock™ plate (Essen Instruments, Mich., USA). Primary Rat cortical astrocytes were plated at 3.105 cells/ml onto 24 well ImageLock™ plate.
Cells were placed into the IncuCyte™ at 37° C. and 95% CO2/5% O2, for two to three days. During this time, the cells within each well were repeatedly imaged at fixed time intervals (every three hours). The IncuCyte™ system automatically monitored the proliferation using the percentage of confluence. Percent of confluence can be graphed over time to evaluate the characteristics of proliferation in the presence of pharmacological agents.
[…] The percentage of reduction of cell confluence was calculated from the AUCs in comparison with the AUCs of the control wells (1% DMSO).

[2] = tested on: CHO-K1 cells; experiment: Cell viability (Cell Glo) in EphA4 cell assay; type: cell-based, Chinese Hamster
Description: Transfection and Luciferase Assay: CHO-K1 cells were plated in T-175 cell culture bottle in DMEM medium supplemented with 10% fetal bovine serum, 1 mM sodium pyruvate, 2 mM L-glutamine and 1.5 g/L sodium bicarbonate. When cell reached 70-80% confluence, transfections were performed in T-175 culture flasks, using Lipofectamine 2000™ transfection reagent (Invitrogen) according to the manufacturer's directions. For the luciferase assay CHO-K1 cells were co-transfected the next day with […] of pGAS-Luc, 70 mg of EphA4, and 5 mg of empty vector pRL-CMV, which encoded the Renilla luciferase, and was included in the transfection mix for normalization. […] Cells were lysed the next day using the Reporter Lysis Buffer (Promega), and the luciferase activity was measured using the Dual Luciferase Assay (Promega) following the manufacturer's directions. The Firefly and Renilla luminescences are read consecutively on a Top-Count (Perkin-Elmer). Results are expressed as a ratio of the two luminsescence: Firefly Luciferase/Renilla Luciferase. Cell viability was assessed on parallel plates using the Cell Glo Assay (Promega) following the manufacturer's directions. Results are expressed as percent of cell death in comparison with vehicle-treated wells.

[3] = tested on: Jak2/Stat3 activation with Interferon Gamma in MCF-7 cells; experiment: Cell-based counterscreen assay (IFN-γ activated Jak2/Stat3, pGAS-luciferase); conditions: for IC50: Homo sapiens, MCF7, inflexion point, read-out: Cell Counter Screen Assay IP
Text: EphA4 cell-based assay was based on the signaling pathway of EphA4, which involves activation of the tyrosine kinase Jak2 and the transcriptional activator Stat3. However, pharmacological agents could also interfere downstream of EphA4 signaling and particularly on Jak2 activity. To counterscreen this potential effect unrelated to EphA4 activity, a new assay was designed based on direct activation of the tyrosine kinase Jak2 and the transcriptional activator Stat3 with Interferon Gamma (IFN-γ).
MCF-7 cells were maintained in MEM growth media, supplemented with 10% fetal bovine serum, 2 mM L-glutamine, 1.5 g/L sodium bicarbonate, 0.1 mM non-essential amino acids, 1 mM sodium pyruvate, and 0.01 mg/ml bovine insulin. For the luciferase assay MCF-7 cells were co-transfected the next day with […] of pGAS-Luc and […] of empty vector pRL-CMV, which encoded the Renilla luciferase, and was included in the transfection mix for normalization. Six hours after transfection the cells were trypsinized and plated at 4.105 cells/ml into 96 well Black/Clear Poly-D-Lysine coated plates (Biocoat) that had been pre-spotted with compounds. […] Cells were lysed the next day using the Reporter Lysis Buffer (Promega), and the luciferase activity was measured using the Dual Luciferase Assay (Promega) following the manufacturer's directions. The Firefly and Renilla luminescences are read consecutively on a Top-Count (Perkin-Elmer).
Results are expressed as a ratio of the two luminsescence: Firefly Luciferase/Renilla Luciferase. Cell viability was assessed on parallel plates using the Cell Glo Assay (Promega) following the manufacturer's directions. Results are expressed as percent of cell death in comparison with vehicle-treated wells.
Compounds were titrated in duplicate at 10 points concentration starting at 100 μM with a 1.5 fold increment. Concentration-response curves were represented and the concentrations at the inflexion point (IP) were calculated. The maximum effect was given by the maximum percent inhibition calculated from the results of the control wells (containing only DMSO).

[4] = tested on: C2C12 cells; experiment: Toxicity (percent of cell death), C2C12 cells; type: cell-based; conditions: 20 μM
Description: EphA4 kinase inhibition is assessed by both an enzymatic assay measuring the phosphorylation of a purified recombinant EphA4 kinase and a cell-based assay using the activation of pGas-Luciferase system in EphA4-transfected CHO-K1 cells. The functional effects of EphA4 RTK inhibitors on cell motility and proliferation is evaluated by the scratch wound assay. The effect of EphA4 RTK inhibitors is also directly measured on the cell confluence. The counterscreen assays (cell counterscreen, Src, Jak2 and P38α kinase) identified other potential inhibitory activities of compounds unrelated to EphA4 kinase. The toxicity is measured by the percent of cell death in the different cell assays. Values represent IC50 and IP in μM calculated from the dose-response curves. Values in parentheses give the maximum percent inhibition.

[5] = target: T1, P60c-src (Homo sapiens, UniProt P12931); experiment: Src kinase counterscreen enzymatic assay (TR-FRET); type: biochemical; conditions: 0.5 μM ATP
T1 construct: purchased Upstate biotechnology, USA
Description: Counterscreen assays were developed for the tyrosine kinases src kinase and jak2 kinase, with a format essentially identical to the EphA4 kinase TR-FRET format. Jak2 (50 ng) (Cell Signaling, USA) was incubated with 0.5 μM of biotinylated FLT3 peptide (Cell Signaling, USA) in presence of 5 μM of ATP (Sigma). P60c-src (10 U/well) (Upstate biotechnology, USA) was incubated with biotinylated Poly(Glu Tyr) peptide (100 nM) in presence of 0.5 μM of ATP. The enzymatic reaction was stopped after 60 min by adding 15 mM EDTA. The detection reaction and energy transfer signal measurements were similar to those previously described. Results were expressed as ratios of the absorbencies 665/615.
Compounds were titrated in duplicate at 11 points concentration starting at 100 μM with a 3 fold increment. Compounds were diluted in DMSO. […] Percentage inhibition for each compound was then calculated based on the value of the 100% inhibition. Concentration-response curves were represented and the concentrations for 50% inhibition (IC50) were calculated.

T1 sequence (P12931 whole entry): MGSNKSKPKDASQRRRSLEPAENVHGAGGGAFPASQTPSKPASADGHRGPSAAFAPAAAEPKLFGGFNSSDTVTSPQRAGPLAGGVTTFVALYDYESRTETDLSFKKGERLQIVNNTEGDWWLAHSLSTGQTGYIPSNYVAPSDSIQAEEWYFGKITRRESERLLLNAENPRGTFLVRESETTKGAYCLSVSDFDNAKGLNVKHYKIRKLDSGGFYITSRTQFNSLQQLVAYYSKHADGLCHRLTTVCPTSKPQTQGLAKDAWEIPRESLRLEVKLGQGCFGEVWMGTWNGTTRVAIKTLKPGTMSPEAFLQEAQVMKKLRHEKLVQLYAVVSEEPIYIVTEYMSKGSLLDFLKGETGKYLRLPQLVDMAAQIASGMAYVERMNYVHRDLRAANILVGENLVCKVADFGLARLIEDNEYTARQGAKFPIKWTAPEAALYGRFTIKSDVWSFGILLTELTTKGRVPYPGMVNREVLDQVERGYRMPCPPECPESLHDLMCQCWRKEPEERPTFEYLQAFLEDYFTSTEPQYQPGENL

| Compound | % Reduction Confluence C2C12 Cells [1] | Max Toxicity Cell Assay % of cell death ([2]; at 50 μM) | IC50 [3] | Cell Counter Screen Assay max inhibition in % ([3]; value in parentheses) | Max Toxicity C2C12 in cells % of cell death [4] | IC50 [5] | Max Toxicity Cell Assay % of cell death ([2]; at 25 μM) |
| --- | --- | --- | --- | --- | --- | --- | --- |
| Cc1ccc(NC(=O)c2cccc(C(F)(F)F)c2)cc1-c1ccc(O)c(NC=O)c1 [Example 133] | 17.5% at 5 μM | 15% at 50 μM | 1.7 µM | 99% | 10% 20 μM | > 100 µM |  |
| Cc1ccc(NC(=O)c2cccc(C(F)(F)F)c2)cc1-c1ccc(-n2cccn2)cc1 [Example 120] | 33.3% at 5 μM |  | > 100 µM |  | 10% 20 μM | > 100 µM | 8% at 25 μM |
